Assay results from PMC4979012, “Structural basis for cytokinin production by LOG from Corynebacterium glutamicum” (Scientific Reports, 2016).

Legend:
CgLOG (Cg2612) [1] = molecular target: T1, CgLOG (Cg2612) (Corynebacterium glutamicum, UniProt Q8NN34, S19A); assay: phosphoribohydrolase assay, TLC with UV detection of adenine; format: biochemical; details: 20 mM AMP, 36 mM Tris-HCl pH 8.0, 30 °C, 23 μM enzyme
T1 construct: gene Cgl2379; full-length, C-terminal 6xHis (pET30a), E. coli BL21(DE3); dimer; residues 2-195 seen in crystal; active site at dimer interface

CgLOG (Cg2612) [2] = molecular target: T2, CgLOG (Cg2612) (Corynebacterium glutamicum, UniProt Q8NN34); assay: as above; format: biochemical; details: 20 mM AMP, 36 mM Tris-HCl pH 8.0, 30 °C, 23 μM enzyme
T2 construct: gene Cgl2379; full-length, C-terminal 6xHis (pET30a), E. coli BL21(DE3); dimer; residues 2-195 seen in crystal; active site at dimer interface
T2 sequence (Q8NN34 1-195): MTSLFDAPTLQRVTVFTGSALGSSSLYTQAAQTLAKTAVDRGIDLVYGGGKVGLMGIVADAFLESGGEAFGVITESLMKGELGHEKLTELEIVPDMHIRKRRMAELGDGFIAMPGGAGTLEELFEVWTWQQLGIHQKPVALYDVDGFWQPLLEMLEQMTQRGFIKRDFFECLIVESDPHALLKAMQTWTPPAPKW

[3] = molecular target: LOG from Corynebacterium glutamicum ATCC 13032 (gene product of Cg2612) (Corynebacterium glutamicum ATCC 13032); assay: SEC; analytical, Superdex 200 10/300, 150 mM NaCl, 300 μL of 3 mg/ml protein; molecular weight from a calibration curve of standards
[4] = molecular target: LOG from Corynebacterium glutamicum ATCC 13032 (gene product of Cg2612) (Corynebacterium glutamicum ATCC 13032); assay: SAXS; solution SAXS at 4 °C, CgLOG 0.5 ~ 4.5 mg/ml; molecular mass by the QR method

T1 sequence (Q8NN34 entry or part of it S19A): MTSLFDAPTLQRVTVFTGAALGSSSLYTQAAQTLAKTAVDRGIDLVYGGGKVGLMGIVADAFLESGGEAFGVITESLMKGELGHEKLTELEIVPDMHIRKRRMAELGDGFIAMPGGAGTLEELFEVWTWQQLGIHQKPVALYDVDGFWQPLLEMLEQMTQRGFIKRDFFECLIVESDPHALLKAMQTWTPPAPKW

Molecule | phosphoribohydrolase assay, TLC with UV detection of adenine (CgLOG (Cg2612) [1]) | phosphoribohydrolase assay, TLC with UV detection of adenine (CgLOG (Cg2612) [2]) | stoichiometry N [3] | stoichiometry N [4]
Nc1ncnc2c1ncn2[C@@H]1O[C@H](COP(=O)(O)O)[C@@H](O)[C@H]1O [AMP] | One exception is S19A mutant which shows higher activity than the wild-type | we observed that Cg2612 has phosphoribohydrolase activity |  | 
LOG from Corynebacterium glutamicum ATCC 13032 (gene product of Cg2612) (enzyme) |  |  | 2 | 2
